Data published in patent publication US9163032B2, “Esters of DCPLA and methods of treatment using the same” (Blanchette Rockefeller Neurosciences Institute, priority 2011, dated 2015).
Like-named read-outs stand apart in the source and are kept apart here.

Assays:
[1] = test system: PKC-ε; test: PKC-ε level in primary neurons (immunofluorescence, Western Blot); format: cell-based, rat; details: 5 μM inhibitor, ASPD + DCPLA-ME
Description: Cells were grown in two chambered slides (Nunc, USA) at low density. For immunofluorescence staining, the cells were washed with PBS (pH 7.4) and fixed with 4% paraformaldehyde for 4 min. Following fixation, the cells were blocked and permeabilized with 5% serum and 0.3% Triton X-100 in 1×PBS for 30 min. Cells were washed three times with 1×PBS and incubated with primary antibodies for 1 hr at 1:100 dilution. After the incubation, the slides were again washed three times in 1×PBS and were incubated with the FITC anti-mouse IgG and Rhodamine anti-rabbit IgG for 1 hr at 1:400 dilution. The cells were further washed and stained with DAPI (4′,6-diamidino-2′-phenylindole, dihydrochloride) (Thermo Scientific, USA) to stain the nucleus. Finally, the slides were washed and mounted in Pro Long Gold antifade mounting solution (Invitrogen, USA) and were viewed under a LSM 710 Meta confocal microscope (Zeiss) at 350 nm, 490 nm, and 540 nm excitation and 470 nm, 525 nm, and 625 nm emission for DAPI, FITC, and Rhodamine respectively. Six individual fields at 63× oil lens magnification were analyzed for the mean fluorescence intensity (MFI) in each channel.
Cells were harvested in homogenizing buffer containing 10 mM Tris-Cl (pH 7.4), 1 mM PMSF (phenylmethylsulfonyl fluoride), 1 mM EGTA, 1 mM EDTA, 50 mM NaF, and 20 μM leupeptin, and were lysed by sonication. The homogenate was centrifuged at 100,000×g for 15 min at 4° C. to obtain the cytosolic fraction (supernatant) and membrane (pellet). The pellet was resuspended in the homogenizing buffer by sonication. […] Protein concentration was measured using the Coomassie Plus (Bradford) Protein Assay kit (Pierce, USA). Following quantification, 20 μg of protein from each sample was subjected to SDS-PAGE analysis in a 4-20% gradient Tris-Glycine gel (Invitrogen, USA). […] The blot was imaged in an ImageQuant RT-ECL (GE Life Sciences, Piscataway, N.J.) and densitometric quantification was performed using IMAL software (Blanchette Rockefeller Neurosciences Institute, Morgantown, W. Va.). […]

[2] = test system: cultured primary rat hippocampal neurons; test: Neuroprotection against ASPD induced toxicity, MTT assay, primary neurons; format: cell-based; details: added to the cells with DCPLA-ME, 50 nM ASPD
Description: Viability of cells was measured by MTT assay. MTT (i.e., 3-(4,5-dimethylthiazol-2-yl)-2,5-diphenyltetrazolium bromide) is a tetrazolium salt that is cleaved to formazan by the succinate dehydrogenase, which is only active in viable cells. After solubilization of the formazan, the amount of dye can be quantified with a microplate reader at 570 nm along with a reference of 630 nm. For the MTT assay, 5×10^4 primary rat hippocampal neurons from 18-day-old embryonic Sprague-Dawley rat brains or SH-SY5Y cells were plated on each well of 24-well plates coated with poly-D-lysine. After treatment, the cells were washed with 1× PBS and were incubated with 200 μl of 1 mg/ml MTT solution (Sigma, USA) at 37° C. for 2 hr. Then the MTT-solution was removed and the cells were lysed with 200 μl isopropanol containing 0.04 M HCl and […] for 10 min. Finally, the reading was taken at 570 nm and 630 nm. All the samples were done in triplicate and the data were represented as the percentage of control.
Bryostatin 1, DCPLA, and DCPLA-ME were tested against ASPD-induced cytotoxicity to determine their neuroprotective efficacy.

[3] = target: T1, PKC-ε (Homo sapiens, UniProt Q02156); test: PKC activation assay with purified PKC-ε isozyme (32P-phosphoprotein formation); format: biochemical; details: for Emax: % of control of PKCε at maximum; for Specificity ε/α: Activation of PKC-ε ÷ activation or inhibition of PKCα at 3xEC50; for concentration of maximal activation: FIG. 2, FIG. 4; for EC50: lowest concentration that activates by 50% of maximum activation; for PKC-ε activation at its peak: maximum, FIG. 1, 2, 4
T1 sequence (Q02156 1-737): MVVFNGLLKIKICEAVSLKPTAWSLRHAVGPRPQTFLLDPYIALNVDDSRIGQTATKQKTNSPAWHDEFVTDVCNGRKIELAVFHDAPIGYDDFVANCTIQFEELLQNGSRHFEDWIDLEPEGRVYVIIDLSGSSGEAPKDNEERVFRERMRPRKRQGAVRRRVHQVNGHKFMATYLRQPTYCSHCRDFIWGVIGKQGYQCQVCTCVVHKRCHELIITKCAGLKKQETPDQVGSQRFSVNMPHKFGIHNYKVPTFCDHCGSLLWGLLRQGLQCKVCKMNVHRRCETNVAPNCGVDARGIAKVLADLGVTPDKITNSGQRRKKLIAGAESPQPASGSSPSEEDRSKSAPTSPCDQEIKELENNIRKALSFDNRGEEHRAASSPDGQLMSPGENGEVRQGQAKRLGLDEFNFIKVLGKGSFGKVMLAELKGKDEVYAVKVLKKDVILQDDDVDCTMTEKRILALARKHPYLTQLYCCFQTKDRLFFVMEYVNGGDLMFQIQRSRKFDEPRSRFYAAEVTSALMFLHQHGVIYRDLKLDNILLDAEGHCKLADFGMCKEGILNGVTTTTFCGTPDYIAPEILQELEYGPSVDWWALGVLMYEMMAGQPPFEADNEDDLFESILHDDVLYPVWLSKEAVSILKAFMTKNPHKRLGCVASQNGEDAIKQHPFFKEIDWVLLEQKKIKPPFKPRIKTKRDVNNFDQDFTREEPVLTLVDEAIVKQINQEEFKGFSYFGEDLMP
Description: (§1) For measurement of PKC activation by DCPLA-ME, activation of recombinant PKC-α, PKC-ε, and PKC-δ was evaluated. DCPLA-ME induced activation was measured in the absence of diacylglycerol (DAG) and phosphatidylserine (PS) as described earlier. See Nelson, T. J. et al., J. Biol. Chem., 2009, 284: 34514-34521, and Kanno, T. et al., J. Cell Physiol., 2009, 221: 183-188. Individual enzymes were incubated for 15 min at 37° C. in the presence of 10 μM histones, 4.89 mM CaCl2, 10 mM MgCl2, 20 mM HEPES (pH 7.4), 0.8 mM EDTA, 4 mM EGTA, 4% glycerol, 8 μg/ml aprotinin, 8 μg/ml leupeptin, 2 mM benzamidine, and 0.5 μCi of [γ-^32P]ATP. Purified PKC-α, PKC-ε and PKC-δ were preincubated with DCPLA-ME for 5 min at room temperature. [^32P]-Phosphoprotein formation was measured by adsorption onto phosphocellulose.
(§2) To measure PKC, 10 μl of cell homogenate or purified PKC isozyme was incubated for 15 min at 37° C. in the presence of 10 μM histones, 4.89 mM CaCl2, 1.2 μg/μl phosphatidyl-L-serine, 0.18 μg/μl 1,2-dioctanoyl-sn-glycerol, 10 mM MgCl2, 20 mM HEPES (pH 7.4), 0.8 mM EDTA, 4 mM EGTA, 4% glycerol, 8 μg/ml aprotinin, 8 μg/ml leupeptin, and 2 mM benzamidine. [γ32P]ATP (0.5 μCi) was added and 32P-phosphoprotein formation was measured by adsorption onto phosphocellulose as described previously. See Nelson et al., J. Neurochemistry, 1995, 65: 2350-2357.
(§3) PKC activity of each compound was measured in the absence of diacylglycerol and phosphatidyl-L-serine and PKC-δ and PKC-ε were measured in the absence of added EGTA and CaCl2, as described by Kanno et al., J. Lipid Res., 2006, 47: 1146-1156. Low concentrations of Ca^2+ are needed because high Ca^2+ interacts with the PKC phosphatidylserine binding site and prevents activation. […] To determine their PKC isozyme specificity, the compounds were pre-incubated with purified isoforms of PKC for five minutes and the PKC activity was measured radiometrically.
(§4) The activation and PKC isozyme specificity of DCPLA-ethyl ester was measured following the procedures in Example 1(B) and (C), except that 9 ng of the purified isozyme was used and it was pre-incubated for 5 minutes at room temperature (FIG. 3). PKC-ε activation by DCPLA-tert-butyl ester and DCPLA-retinyl ester was measured in the same manner as DCPLA-ethyl ester (FIG. 3).
The EC50 values, PKC specificity, and activation for a select number of DCPLA esters was determined (see Table 1). EC50 values were determined by measuring the lowest concentration that activates by 50% of maximum activation. […] The specificity and activation of PKC by the various esters of DCPLA were determined from the measurements of activation of PKC isozymes.

[4] = target: PKC-δ (Homo sapiens, UniProt Q05655); test: PKC activation assay with purified PKC-δ isozyme; format: biochemical
Sequence of PKC-δ (Q05655 whole entry): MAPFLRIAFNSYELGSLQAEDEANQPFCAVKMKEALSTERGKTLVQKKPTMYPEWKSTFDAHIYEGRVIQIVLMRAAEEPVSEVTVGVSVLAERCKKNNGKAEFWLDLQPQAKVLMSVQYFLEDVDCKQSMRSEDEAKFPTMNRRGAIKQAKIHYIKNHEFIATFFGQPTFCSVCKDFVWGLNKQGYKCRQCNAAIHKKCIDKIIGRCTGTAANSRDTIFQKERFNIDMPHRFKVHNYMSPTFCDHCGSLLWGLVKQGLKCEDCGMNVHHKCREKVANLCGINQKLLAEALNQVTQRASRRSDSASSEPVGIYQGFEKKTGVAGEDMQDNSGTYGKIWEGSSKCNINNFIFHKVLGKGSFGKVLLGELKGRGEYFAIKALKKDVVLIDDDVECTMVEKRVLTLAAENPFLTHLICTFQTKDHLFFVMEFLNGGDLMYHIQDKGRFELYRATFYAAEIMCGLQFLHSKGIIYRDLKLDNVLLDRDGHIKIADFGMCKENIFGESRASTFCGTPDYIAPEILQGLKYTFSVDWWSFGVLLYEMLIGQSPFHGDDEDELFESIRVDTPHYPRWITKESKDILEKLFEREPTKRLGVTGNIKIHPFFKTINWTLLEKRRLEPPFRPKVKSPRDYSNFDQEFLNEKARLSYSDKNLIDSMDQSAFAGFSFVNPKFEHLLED
Description: as §1
as §2, with “2350-2357. […]” for “2350-2357.”

[5] = target: PKC-α (Homo sapiens, UniProt P17252); test: PKC activation assay with purified PKC-α isozyme; format: biochemical
Description: as §1
as §2, with “See Nelson et al., J. Neurochemistry, 1995, 65: 2350-2357.” left out
as §3, with “1146-1156.” for “1146-1156. Low concentrations of Ca^2+ are needed because high Ca^2+ interacts with the PKC phosphatidylserine binding site and prevents activation.”
as §4

EAVSLKPT
effect on DCPLA-ME protection of PKC-ε protein level [1]: completely blocked | effect on DCPLA-ME neuroprotection [2]: blocked DCPLA-ME's protective effect

CCCCCC1CC1CC1CC1CCCCCCCC(=O)OC(C)C (centres unmarked) [DCPLA-isopropyl ester]
Emax [3]: 140% | Specificity ε/α [3]: 1.4 | concentration of maximal activation [3]: 10 nM | EC50 [3]: 0.1 nM | PKC-ε activation at its peak [3]: up to 40 % of control | effect on PKC-δ [4]: only slightly activated

CCCCC/C=C\C/C=C\CCCCCCCC(=O)O[C@H]1CC[C@@]2(C)C(=CC[C@H]3[C@@H]4CC[C@H]([C@H](C)CCCC(C)C)[C@@]4(C)CC[C@@H]32)C1 [Cholesteryl linoleate, cholesteryl linoleate, reference compound]
PKC-ε activation ([3]; FIG. 4): little or no activation | PKC-α activation ([5]; FIG. 4): 20%

CCCCCC1CC1CC1CC1CCCCCCCC(=O)OC1CC[C@@]2(C)C(=CC[C@H]3[C@H]4CC[C@H]([C@H](C)CCCC(C)C)[C@@]4(C)CC[C@H]32)C1 (some centres unmarked) [DCPLA-cholesteryl ester, DCPLA cholesteryl ester]
affinity for PKC-ε and PKC-δ [3]: extremely high affinity | form of activity vs. concentration response [3]: biphasic manner | Emax [3]: 122% | Specificity ε/α [3]: 0.94 | concentration of maximal activation [3]: 0.01 nM | potency relative to Bryostatin 1 ([3]; from concentration of maximal activity): 18 × | form of activity vs. concentration response ([3]; listed as cholesteryl ester): bimodal activation | EC50 [3]: 0.005 nM | PKC-ε activation at its peak [3]: up to 130 % of control | effect on PKC-α [5]: inhibited at all concentrations
